# Key:
# KP1008 KPC-2 = assay: Dose titration biapenem potentiation assay (MPC1); format: cell-based, Klebsiella pneumoniae; details: biapenem 1 μg/mL
# Protocol: (§1) The potency and spectrum of β-lactamase inhibitors is also determined by assessing their biapenem potentiation activity in a dose titration potentiation assay using strains expressing serine carbapemenases (such as KPC). The potentiation effect is observed as the ability of BLI compounds to inhibit growth in the presence of sub-inhibitory concentration of biapenem. […] Biapenem is present in the test medium at 1 μg/mL. Compounds tested at the highest concentration of 40 μg/mL. […] Table 5 summarizes BLI potency of biapenem potentiation (MPC1). Biapenem MIC for each strain is also shown.
# KP1004 KPC-2 = assay: Dose titration biapenem potentiation assay (MPC1); format: cell-based, Klebsiella pneumoniae; details: biapenem 1 μg/mL
# Protocol: as §1
# ECL1004 NMC-A = assay: Dose titration biapenem potentiation assay (MPC1); format: cell-based, Enterobacter cloacae; details: biapenem 1 μg/mL
# Protocol: as §1
# EC1007 KPC-3 = assay: Dose titration biapenem potentiation assay (MPC1); format: cell-based, Escherichia coli; details: biapenem 1 μg/mL
# Protocol: as §1
# [1] = system: E. coli EC1061 (NDM-1 CMY-6); assay: Aztreonam/Tigemonam MIC at various concentrations of BLI; format: cell-based; details: Escherichia coli, read-out: Aztreonam MIC (μg/ml) in the presence of BLI
# Protocol: MIC values for each bacterial strain were measured for each antimicrobial compound at various concentrations of each BLI. […]
# [2] = system: K. pneumoniae KP1081 (NDM-1, CMY-6, SHV-11, CTX-M-15, TEM-1); assay: as above; format: cell-based; details: Klebsiella pneumoniae, read-out: Aztreonam MIC (μg/ml) in the presence of BLI
# Protocol: MIC values for each bacterial strain were measured for each antimicrobial compound at various concentrations of each BLI.
compound,measurement,setting,value
"NCCC(=O)N[C@H]1CC[C@@H](CC(=O)O)OB1O [Compound 34, 2-((3R,6S)-3-(3-aminopropanamido)-2-hydroxy-1,2-oxaborinan-6-yl)acetic acid]",BPM MPC1 KP1008 KPC-2,KP1008 KPC-2,X (X = MPC1 of less than 1 μg/mL.)
same,BPM MPC1 KP1004 KPC-2,KP1004 KPC-2,X (X = MPC1 of less than 1 μg/mL.)
same,BPM MPC1 ECL1004 NMC-A,ECL1004 NMC-A,Y (Y = MPC1 of 1 μg/mL to 5 μg/mL.)
same,BPM MPC1 EC1007 KPC-3,EC1007 KPC-3,X (X = MPC1 of less than 1 μg/mL.)
N=C(N)NCCC[C@@H](N)C(=O)N[C@H]1CC[C@@H](CC(=O)O)OB1O [Compound 47],BPM MPC1 KP1008 KPC-2,KP1008 KPC-2,X (X = MPC1 of less than 1 μg/mL.)
same,BPM MPC1 KP1004 KPC-2,KP1004 KPC-2,Y (Y = MPC1 of 1 μg/mL to 5 μg/mL.)
same,BPM MPC1 ECL1004 NMC-A,ECL1004 NMC-A,Z (Z = MPC1 of greater than 5 μg/mL.)
same,BPM MPC1 EC1007 KPC-3,EC1007 KPC-3,X (X = MPC1 of less than 1 μg/mL.)
"Nc1nc(/C(=N/OCc2cc(=O)c(O)cn2O)C(=O)N[C@H]2CC[C@@H](CC(=O)O)OB2O)cs1 [Compound 62, 2-((3R)-3-((Z)-2-(2-aminothiazol-4-yl)-2-((1,5-dihydroxy-4-oxo-1,4-dihydropyridin-2-yl)methoxyimino)acetamido)-2-hydroxy-1,2-oxaborinan-6-yl)acetic acid]",BPM MPC1 KP1008 KPC-2,KP1008 KPC-2,X (X = MPC1 of less than 1 μg/mL.)
same,BPM MPC1 KP1004 KPC-2,KP1004 KPC-2,X (X = MPC1 of less than 1 μg/mL.)
same,BPM MPC1 ECL1004 NMC-A,ECL1004 NMC-A,X (X = MPC1 of less than 1 μg/mL.)
same,BPM MPC1 EC1007 KPC-3,EC1007 KPC-3,X (X = MPC1 of less than 1 μg/mL.)
"O=C(O)C[C@@H]1CC[C@H](NC(=O)Cc2ccncc2)B(O)O1 [Compound 49, 2-((3R,6S)-2-hydroxy-3-(2-(pyridin-4-yl)acetamido)-1,2-oxaborinan-6-yl)acetic acid]",BPM MPC1 KP1008 KPC-2,KP1008 KPC-2,X (X = MPC1 of less than 1 μg/mL.)
same,BPM MPC1 KP1004 KPC-2,KP1004 KPC-2,X (X = MPC1 of less than 1 μg/mL.)
same,BPM MPC1 ECL1004 NMC-A,ECL1004 NMC-A,X (X = MPC1 of less than 1 μg/mL.)
same,BPM MPC1 EC1007 KPC-3,EC1007 KPC-3,X (X = MPC1 of less than 1 μg/mL.)
"CC(C)(O/N=C(\C(=O)N[C@H]1CC[C@@H](CC(=O)O)OB1O)c1csc(N)n1)C(=O)O [Compound 36, 2-((Z)-1-(2-aminothiazol-4-yl)-2-((3R,6S)-6-(carboxymethyl)-2-hydroxy-1,2-oxaborinan-3-ylamino)-2-oxoethylideneaminooxy)-2-methylpropanoic acid]",BPM MPC1 KP1008 KPC-2,KP1008 KPC-2,X (X = MPC1 of less than 1 μg/mL.)
same,BPM MPC1 KP1004 KPC-2,KP1004 KPC-2,Z (Z = MPC1 of greater than 5 μg/mL.)
same,BPM MPC1 ECL1004 NMC-A,ECL1004 NMC-A,X (X = MPC1 of less than 1 μg/mL.)
same,BPM MPC1 EC1007 KPC-3,EC1007 KPC-3,Y (Y = MPC1 of 1 μg/mL to 5 μg/mL.)
"O=C(O)C[C@@H]1CC[C@H](NC(=O)Cc2cc(F)cc(F)c2)B(O)O1 [Compound 66, 2-((3R,6S)-3-(2-(3,5-difluorophenyl)acetamido)-2-hydroxy-1,2-oxaborinan-6-yl)acetic acid]",BPM MPC1 KP1008 KPC-2,KP1008 KPC-2,X (X = MPC1 of less than 1 μg/mL.)
same,BPM MPC1 KP1004 KPC-2,KP1004 KPC-2,X (X = MPC1 of less than 1 μg/mL.)
same,BPM MPC1 ECL1004 NMC-A,ECL1004 NMC-A,X (X = MPC1 of less than 1 μg/mL.)
same,BPM MPC1 EC1007 KPC-3,EC1007 KPC-3,X (X = MPC1 of less than 1 μg/mL.)
"C[C@H]1[C@H](NC(=O)/C(=N\OC(C)(C)C(=O)O)c2csc(N)n2)C(=O)N1S(=O)(=O)O [Aztreonam, reference compound]",MIC,[1],16 µg/mL
same,MIC,[2],256 µg/mL
"NCCSCC(=O)N[C@H]1CC[C@@H](CC(=O)O)OB1O [Compound 48, 2-((3R,6S)-3-(2-(2-aminoethylthio)acetamido)-2-hydroxy-1,2-oxaborinan-6-yl)acetic acid]",BPM MPC1 KP1008 KPC-2,KP1008 KPC-2,X (X = MPC1 of less than 1 μg/mL.)
same,BPM MPC1 KP1004 KPC-2,KP1004 KPC-2,X (X = MPC1 of less than 1 μg/mL.)
same,BPM MPC1 ECL1004 NMC-A,ECL1004 NMC-A,X (X = MPC1 of less than 1 μg/mL.)
same,BPM MPC1 EC1007 KPC-3,EC1007 KPC-3,X (X = MPC1 of less than 1 μg/mL.)

# Reference: US20150119363A1, “METHODS OF TREATING BACTERIAL INFECTIONS” (Rampex Pharmaceuticals, Inc., priority 2012, published 2015)
